{"source": "paper PMC12749626", "about": "“Expediting hit-to-lead progression in drug discovery through reaction prediction and multi-dimensional optimization” (Nature Communications, 2025)", "key": {"[1]": {"biological_target": "κ OPIOID REC. (Homo sapiens, UniProt P41145)", "conditions": "10 uM; n=2"}, "[2]": {"biological_target": "DOPAMINE D2 REC. (short) (Homo sapiens, UniProt P14416)", "conditions": "10 uM; n=2"}, "[3]": {"biological_target": "ZAP70 (Homo sapiens, UniProt P43403)", "conditions": "10 uM; n=2"}, "[4]": {"biological_target": "PROSTAGLANDIN F REC. (Homo sapiens, UniProt P43088)", "conditions": "10 uM; n=2"}, "[5]": {"biological_target": "ADENOSINE A1 REC. (Homo sapiens, UniProt P30542)", "sequence (P30542 whole entry)": "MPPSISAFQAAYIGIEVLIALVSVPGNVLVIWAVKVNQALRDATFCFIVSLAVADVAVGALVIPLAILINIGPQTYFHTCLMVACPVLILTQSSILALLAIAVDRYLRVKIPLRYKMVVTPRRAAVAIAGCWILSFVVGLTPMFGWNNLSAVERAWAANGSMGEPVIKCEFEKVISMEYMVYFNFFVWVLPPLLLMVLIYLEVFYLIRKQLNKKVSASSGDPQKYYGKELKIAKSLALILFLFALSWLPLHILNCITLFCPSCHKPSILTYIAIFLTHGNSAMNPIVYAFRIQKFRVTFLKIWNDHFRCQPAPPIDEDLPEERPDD", "conditions": "10 uM; n=2"}, "[6]": {"biological_target": "[…]. M2 (Homo sapiens, UniProt P08172)", "conditions": "10 uM; n=2"}, "[7]": {"biological_target": "SEROTONIN TRANSPORTER (Homo sapiens, UniProt P31645)", "conditions": "10 uM; n=2"}, "[8]": {"biological_target": "μ OPIOID REC. (Homo sapiens, UniProt P35372)", "sequence (P35372 whole entry)": "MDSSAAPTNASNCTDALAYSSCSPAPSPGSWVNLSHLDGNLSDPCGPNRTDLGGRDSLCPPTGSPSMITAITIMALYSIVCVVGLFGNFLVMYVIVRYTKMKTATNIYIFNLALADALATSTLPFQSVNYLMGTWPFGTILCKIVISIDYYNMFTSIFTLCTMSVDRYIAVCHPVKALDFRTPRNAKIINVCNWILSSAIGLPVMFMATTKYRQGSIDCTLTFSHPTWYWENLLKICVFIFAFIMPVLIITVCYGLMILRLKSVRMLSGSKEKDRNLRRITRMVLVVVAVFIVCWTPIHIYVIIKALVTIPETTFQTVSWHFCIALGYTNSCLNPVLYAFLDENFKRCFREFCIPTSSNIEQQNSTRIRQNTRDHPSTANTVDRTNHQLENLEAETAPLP", "conditions": "10 uM; n=2"}, "[9]": {"biological_target": "HISTAMINE H3 REC. (Homo sapiens, UniProt Q9Y5N1)", "sequence (Q9Y5N1 whole entry)": "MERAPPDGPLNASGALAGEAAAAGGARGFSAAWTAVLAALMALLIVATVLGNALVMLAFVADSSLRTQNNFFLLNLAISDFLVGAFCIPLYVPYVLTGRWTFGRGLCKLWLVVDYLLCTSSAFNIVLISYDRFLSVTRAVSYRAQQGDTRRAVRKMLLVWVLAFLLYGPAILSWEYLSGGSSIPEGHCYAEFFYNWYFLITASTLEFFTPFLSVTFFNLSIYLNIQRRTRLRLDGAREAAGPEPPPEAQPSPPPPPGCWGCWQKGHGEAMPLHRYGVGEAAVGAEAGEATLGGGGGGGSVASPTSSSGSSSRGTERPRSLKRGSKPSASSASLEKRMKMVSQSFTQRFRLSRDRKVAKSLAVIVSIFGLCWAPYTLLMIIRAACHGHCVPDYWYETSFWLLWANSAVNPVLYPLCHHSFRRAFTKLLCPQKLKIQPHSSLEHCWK", "conditions": "10 uM; n=2"}, "[10]": {"biological_target": "PPARγ (Homo sapiens, UniProt P37231)", "conditions": "10 uM; n=2"}, "[11]": {"biological_target": "HIV-1 PROTEASE (Human immunodeficiency virus type 1 group M subtype B, UniProt P04585)", "conditions": "10 uM; n=2"}, "[12]": {"biological_target": "GLUC[…]. (Homo sapiens, UniProt P04150)", "conditions": "10 uM; n=2"}, "[13]": {"biological_target": "NORE[…]. (Homo sapiens, UniProt P23975)", "conditions": "10 uM; n=2"}, "[14]": {"biological_target": "XANTHINE OXIDASE (Bos taurus, UniProt P80457)", "sequence (P80457 2-1332)": "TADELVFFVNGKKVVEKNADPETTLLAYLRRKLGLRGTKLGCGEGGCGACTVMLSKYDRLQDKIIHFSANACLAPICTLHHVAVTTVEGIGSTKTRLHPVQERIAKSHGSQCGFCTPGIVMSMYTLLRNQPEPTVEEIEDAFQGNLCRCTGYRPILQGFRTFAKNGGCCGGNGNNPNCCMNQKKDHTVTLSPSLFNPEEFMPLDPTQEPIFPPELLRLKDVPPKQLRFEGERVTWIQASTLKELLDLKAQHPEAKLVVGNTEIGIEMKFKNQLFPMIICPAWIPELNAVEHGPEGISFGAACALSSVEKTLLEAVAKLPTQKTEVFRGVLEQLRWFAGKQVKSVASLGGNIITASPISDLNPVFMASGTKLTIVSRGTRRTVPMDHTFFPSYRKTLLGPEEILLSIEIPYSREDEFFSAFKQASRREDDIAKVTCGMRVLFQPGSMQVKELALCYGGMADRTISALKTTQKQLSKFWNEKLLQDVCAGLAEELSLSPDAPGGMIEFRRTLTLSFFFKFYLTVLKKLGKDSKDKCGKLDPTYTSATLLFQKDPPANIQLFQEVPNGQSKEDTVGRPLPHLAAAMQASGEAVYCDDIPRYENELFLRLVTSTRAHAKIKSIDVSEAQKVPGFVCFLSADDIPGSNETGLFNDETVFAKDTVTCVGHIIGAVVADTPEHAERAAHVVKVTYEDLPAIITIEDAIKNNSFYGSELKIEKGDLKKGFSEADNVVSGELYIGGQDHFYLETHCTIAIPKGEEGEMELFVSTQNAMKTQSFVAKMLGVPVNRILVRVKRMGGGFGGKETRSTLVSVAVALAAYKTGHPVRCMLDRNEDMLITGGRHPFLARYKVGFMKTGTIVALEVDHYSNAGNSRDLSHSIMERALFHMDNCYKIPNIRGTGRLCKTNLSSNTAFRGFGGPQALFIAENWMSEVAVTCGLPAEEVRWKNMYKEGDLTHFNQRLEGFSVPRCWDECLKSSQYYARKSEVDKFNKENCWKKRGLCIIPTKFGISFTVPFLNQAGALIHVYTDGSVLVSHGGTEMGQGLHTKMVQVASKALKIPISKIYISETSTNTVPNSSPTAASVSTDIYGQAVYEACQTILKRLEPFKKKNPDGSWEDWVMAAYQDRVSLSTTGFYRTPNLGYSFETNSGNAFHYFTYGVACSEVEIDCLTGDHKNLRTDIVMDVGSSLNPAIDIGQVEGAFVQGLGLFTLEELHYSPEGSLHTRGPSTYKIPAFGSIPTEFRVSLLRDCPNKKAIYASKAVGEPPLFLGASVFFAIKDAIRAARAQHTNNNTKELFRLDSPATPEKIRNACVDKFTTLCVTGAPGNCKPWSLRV", "conditions": "10 uM; n=2"}, "[15]": {"biological_target": "HISTAMINE H1 REC. (Homo sapiens, UniProt P35367)", "conditions": "10 uM; n=2"}, "[16]": {"biological_target": "ANDROGEN REC. (Homo sapiens, UniProt P10275)", "conditions": "10 uM; n=2"}, "[17]": {"biological_target": "ADENOSINE A3 REC. (Homo sapiens, UniProt P0DMS8)", "conditions": "10 uM; n=2"}, "[18]": {"biological_target": "A[…]. ENZ. (Homo sapiens, UniProt P12821)", "conditions": "10 uM; n=2"}, "[19]": {"biological_target": "5HT2B (Homo sapiens, UniProt P41595)", "conditions": "10 uM; n=2"}, "[20]": {"biological_target": "MONOAMINE OXIDASE-A (Homo sapiens, UniProt P21397)", "sequence (P21397 whole entry)": "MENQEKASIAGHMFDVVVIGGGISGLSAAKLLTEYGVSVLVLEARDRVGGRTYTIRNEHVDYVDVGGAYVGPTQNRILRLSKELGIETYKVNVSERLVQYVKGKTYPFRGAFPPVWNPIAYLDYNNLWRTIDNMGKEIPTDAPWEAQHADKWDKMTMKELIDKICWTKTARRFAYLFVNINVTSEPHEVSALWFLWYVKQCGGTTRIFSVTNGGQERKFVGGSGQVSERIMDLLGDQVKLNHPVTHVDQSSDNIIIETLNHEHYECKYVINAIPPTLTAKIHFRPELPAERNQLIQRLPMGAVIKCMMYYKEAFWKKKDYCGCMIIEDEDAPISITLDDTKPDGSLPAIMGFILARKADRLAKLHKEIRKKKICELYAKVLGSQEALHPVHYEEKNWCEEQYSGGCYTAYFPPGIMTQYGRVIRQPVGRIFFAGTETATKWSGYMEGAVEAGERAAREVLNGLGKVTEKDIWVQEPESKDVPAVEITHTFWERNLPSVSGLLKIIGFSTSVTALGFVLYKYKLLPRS", "conditions": "10 uM; n=2"}, "[21]": {"biological_target": "T1, human MAGL (Homo sapiens, UniProt Q99685)", "T1 sequence (Q99685 1-303)": "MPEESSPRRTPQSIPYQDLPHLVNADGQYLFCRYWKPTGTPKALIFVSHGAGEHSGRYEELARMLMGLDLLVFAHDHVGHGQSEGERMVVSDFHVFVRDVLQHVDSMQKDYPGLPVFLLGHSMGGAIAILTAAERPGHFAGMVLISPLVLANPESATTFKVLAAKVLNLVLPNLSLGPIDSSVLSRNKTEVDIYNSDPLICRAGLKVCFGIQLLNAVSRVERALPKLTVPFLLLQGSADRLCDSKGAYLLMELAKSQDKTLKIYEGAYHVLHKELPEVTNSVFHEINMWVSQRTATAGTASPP", "conditions": "= pIC50 - cLogP"}, "[22]": {"biological_target": "α1A-ADRENOCEPTOR (Homo sapiens, UniProt P35348)", "conditions": "10 uM; n=2"}, "[23]": {"biological_target": "5HT2A (Homo sapiens, UniProt P28223)", "conditions": "10 uM; n=2"}, "[24]": {"biological_target": "DOPAMINE D1 REC. (Homo sapiens, UniProt P21728)", "sequence (P21728 whole entry)": "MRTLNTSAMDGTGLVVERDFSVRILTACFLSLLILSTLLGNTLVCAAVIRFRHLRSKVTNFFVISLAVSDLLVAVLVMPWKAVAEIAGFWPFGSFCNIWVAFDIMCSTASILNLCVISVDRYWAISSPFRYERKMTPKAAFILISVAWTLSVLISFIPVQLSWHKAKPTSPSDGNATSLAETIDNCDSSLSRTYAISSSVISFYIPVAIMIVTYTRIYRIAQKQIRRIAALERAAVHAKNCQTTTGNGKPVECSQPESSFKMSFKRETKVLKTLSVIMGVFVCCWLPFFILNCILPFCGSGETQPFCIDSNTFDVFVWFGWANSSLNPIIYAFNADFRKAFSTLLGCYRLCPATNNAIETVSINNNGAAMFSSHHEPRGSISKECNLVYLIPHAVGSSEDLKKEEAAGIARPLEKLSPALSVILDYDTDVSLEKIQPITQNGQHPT", "conditions": "10 uM; n=2"}, "[25]": {"biological_target": "CDK2 (Homo sapiens, UniProt P24941)", "conditions": "10 uM; n=2"}, "[26]": {"biological_target": "5HT3 (Homo sapiens, UniProt P46098)", "conditions": "10 uM; n=2"}, "[27]": {"tested_on": "closely related brain hydrolases", "conditions": "activity-based protein profiling, mouse brain, 10 µM"}, "[28]": {"biological_target": "GSK-3B (Homo sapiens, UniProt P49841)", "conditions": "10 uM; n=2"}, "[29]": {"biological_target": "β1-ADRENOCEPTOR (Homo sapiens, UniProt P08588)", "conditions": "10 uM; n=2"}, "[30]": {"biological_target": "5HT1A (Homo sapiens, UniProt P08908)", "sequence (P08908 whole entry)": "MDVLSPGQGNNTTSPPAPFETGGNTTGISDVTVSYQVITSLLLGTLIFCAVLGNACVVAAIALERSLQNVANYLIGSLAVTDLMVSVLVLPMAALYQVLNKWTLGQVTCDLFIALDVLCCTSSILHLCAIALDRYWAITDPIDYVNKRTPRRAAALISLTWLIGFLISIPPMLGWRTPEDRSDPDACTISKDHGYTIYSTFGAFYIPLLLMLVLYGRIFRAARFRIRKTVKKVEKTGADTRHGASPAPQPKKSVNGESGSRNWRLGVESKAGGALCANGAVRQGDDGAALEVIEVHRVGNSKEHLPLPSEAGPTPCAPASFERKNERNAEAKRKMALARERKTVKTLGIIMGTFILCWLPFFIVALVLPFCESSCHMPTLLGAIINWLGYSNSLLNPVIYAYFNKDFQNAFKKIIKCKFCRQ", "conditions": "10 uM; n=2"}, "[31]": {"biological_target": "PHOSPHODIESTERASE 4D2 (Homo sapiens, UniProt Q08499)", "sequence (Q08499 303-809)": "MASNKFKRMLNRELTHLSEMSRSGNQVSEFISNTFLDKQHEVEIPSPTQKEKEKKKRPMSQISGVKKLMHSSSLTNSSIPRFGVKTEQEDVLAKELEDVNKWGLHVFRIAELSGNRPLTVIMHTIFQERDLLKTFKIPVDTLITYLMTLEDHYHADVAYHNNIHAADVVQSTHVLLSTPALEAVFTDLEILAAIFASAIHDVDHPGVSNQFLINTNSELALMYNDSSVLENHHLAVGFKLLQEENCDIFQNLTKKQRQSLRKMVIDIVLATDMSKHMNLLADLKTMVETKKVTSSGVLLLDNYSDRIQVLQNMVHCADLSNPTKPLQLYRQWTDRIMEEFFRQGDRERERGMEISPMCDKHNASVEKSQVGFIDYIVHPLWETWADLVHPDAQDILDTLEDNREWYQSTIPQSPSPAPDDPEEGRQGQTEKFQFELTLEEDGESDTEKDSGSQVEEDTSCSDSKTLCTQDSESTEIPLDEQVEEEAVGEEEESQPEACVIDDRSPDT", "conditions": "10 uM; n=2"}, "[32]": {"biological_target": "GSK-3A (Homo sapiens, UniProt P49840)", "conditions": "10 uM; n=2"}, "[33]": {"biological_target": "α2A-ADRENOCEPTOR (Homo sapiens, UniProt P08913)", "conditions": "10 uM; n=2"}, "[34]": {"biological_target": "ANGIOTENSIN II REC. 1 (Homo sapiens, UniProt P30556)", "conditions": "10 uM; n=2"}, "[35]": {"biological_target": "ACETYLCHOLINESTERASE (Homo sapiens, UniProt P22303)", "sequence (P22303 32-614)": "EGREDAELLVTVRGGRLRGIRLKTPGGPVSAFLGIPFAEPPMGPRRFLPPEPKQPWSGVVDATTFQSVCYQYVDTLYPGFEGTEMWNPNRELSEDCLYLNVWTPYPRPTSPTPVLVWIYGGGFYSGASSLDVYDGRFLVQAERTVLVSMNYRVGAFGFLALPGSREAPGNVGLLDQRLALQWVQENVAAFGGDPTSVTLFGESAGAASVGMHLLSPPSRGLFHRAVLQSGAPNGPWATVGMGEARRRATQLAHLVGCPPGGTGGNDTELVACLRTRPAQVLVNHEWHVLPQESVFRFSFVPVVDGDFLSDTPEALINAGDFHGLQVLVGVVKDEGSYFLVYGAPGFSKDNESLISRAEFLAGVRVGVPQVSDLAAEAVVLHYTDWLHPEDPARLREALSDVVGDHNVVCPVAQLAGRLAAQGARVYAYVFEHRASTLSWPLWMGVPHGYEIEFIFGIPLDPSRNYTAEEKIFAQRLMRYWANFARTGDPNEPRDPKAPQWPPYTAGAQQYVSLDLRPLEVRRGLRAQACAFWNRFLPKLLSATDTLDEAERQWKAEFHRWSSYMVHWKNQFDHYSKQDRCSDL", "conditions": "10 uM; n=2"}, "[36]": {"biological_target": "[…]. M1 (Homo sapiens, UniProt P11229)", "conditions": "10 uM; n=2"}, "[37]": {"biological_target": "C[…]. CB1 (Homo sapiens, UniProt P21554)", "conditions": "10 uM; n=2"}}}
{"smiles": "O=C(c1ccc2nc(-c3cnccc3C3(C4CCC4)CC3)oc2c1)N1CCN(c2nc3nc(Cl)ccc3o2)CC1", "note": "[Compound 27]", "values": [{"measurement": "κ OPIOID REC. percent activity or inhibition compared to the assay reference", "setting": "[1]", "result": 48, "unit": "%"}, {"measurement": "DOPAMINE D2 REC. (short) percent activity or inhibition compared to the assay reference", "setting": "[2]", "result": 13, "unit": "%"}, {"measurement": "ZAP70 percent activity or inhibition compared to the assay reference", "setting": "[3]", "result": -15, "unit": "%"}, {"measurement": "PROSTAGLANDIN F REC. percent activity or inhibition compared to the assay reference", "setting": "[4]", "result": 0, "unit": "%"}, {"measurement": "ADENOSINE A1 REC. percent activity or inhibition compared to the assay reference", "setting": "[5]", "result": 13, "unit": "%"}, {"measurement": "[…]. M2 percent activity or inhibition compared to the assay reference", "setting": "[6]", "result": 76, "unit": "%"}, {"measurement": "SEROTONIN TRANSPORTER percent activity or inhibition compared to the assay reference", "setting": "[7]", "result": 1, "unit": "%"}, {"measurement": "μ OPIOID REC. percent activity or inhibition compared to the assay reference", "setting": "[8]", "result": 16, "unit": "%"}, {"measurement": "HISTAMINE H3 REC. percent activity or inhibition compared to the assay reference", "setting": "[9]", "result": 15, "unit": "%"}, {"measurement": "PPARγ percent activity or inhibition compared to the assay reference", "setting": "[10]", "result": 9, "unit": "%"}, {"measurement": "HIV-1 PROTEASE percent activity or inhibition compared to the assay reference", "setting": "[11]", "result": 34, "unit": "%"}, {"measurement": "GLUC[…]. percent activity or inhibition compared to the assay reference", "setting": "[12]", "result": 5, "unit": "%"}, {"measurement": "NORE[…]. percent activity or inhibition compared to the assay reference", "setting": "[13]", "result": 28, "unit": "%"}, {"measurement": "XANTHINE OXIDASE percent activity or inhibition compared to the assay reference", "setting": "[14]", "result": 6, "unit": "%"}, {"measurement": "HISTAMINE H1 REC. percent activity or inhibition compared to the assay reference", "setting": "[15]", "result": 48, "unit": "%"}, {"measurement": "ANDROGEN REC. percent activity or inhibition compared to the assay reference", "setting": "[16]", "result": -6, "unit": "%"}, {"measurement": "ADENOSINE A3 REC. percent activity or inhibition compared to the assay reference", "setting": "[17]", "result": 7, "unit": "%"}, {"measurement": "A[…]. ENZ. percent activity or inhibition compared to the assay reference", "setting": "[18]", "result": -12, "unit": "%"}, {"measurement": "5HT2B percent activity or inhibition compared to the assay reference", "setting": "[19]", "result": 10, "unit": "%"}, {"measurement": "MONOAMINE OXIDASE-A percent activity or inhibition compared to the assay reference", "setting": "[20]", "result": -2, "unit": "%"}, {"measurement": "Lipophilic efficiency (LipE)", "setting": "[21]", "result": 3.72}, {"measurement": "α1A-ADRENOCEPTOR percent activity or inhibition compared to the assay reference", "setting": "[22]", "result": 5, "unit": "%"}, {"measurement": "5HT2A percent activity or inhibition compared to the assay reference", "setting": "[23]", "result": 12, "unit": "%"}, {"measurement": "DOPAMINE D1 REC. percent activity or inhibition compared to the assay reference", "setting": "[24]", "result": -2, "unit": "%"}, {"measurement": "CDK2 percent activity or inhibition compared to the assay reference", "setting": "[25]", "result": 0, "unit": "%"}, {"measurement": "5HT3 percent activity or inhibition compared to the assay reference", "setting": "[26]", "result": -3, "unit": "%"}, {"measurement": "selectivity toward MAGL over off-targets and closely related brain hydrolases", "setting": "[27]", "result": "high selectivity"}, {"measurement": "GSK-3B percent activity or inhibition compared to the assay reference", "setting": "[28]", "result": -8, "unit": "%"}, {"measurement": "β1-ADRENOCEPTOR percent activity or inhibition compared to the assay reference", "setting": "[29]", "result": 4, "unit": "%"}, {"measurement": "5HT1A percent activity or inhibition compared to the assay reference", "setting": "[30]", "result": 28, "unit": "%"}, {"measurement": "PHOSPHODIESTERASE 4D2 percent activity or inhibition compared to the assay reference", "setting": "[31]", "result": -7, "unit": "%"}, {"measurement": "GSK-3A percent activity or inhibition compared to the assay reference", "setting": "[32]", "result": 30, "unit": "%"}, {"measurement": "α2A-ADRENOCEPTOR percent activity or inhibition compared to the assay reference", "setting": "[33]", "result": 0, "unit": "%"}, {"measurement": "ANGIOTENSIN II REC. 1 percent activity or inhibition compared to the assay reference", "setting": "[34]", "result": -1, "unit": "%"}, {"measurement": "ACETYLCHOLINESTERASE percent activity or inhibition compared to the assay reference", "setting": "[35]", "result": -4, "unit": "%"}, {"measurement": "[…]. M1 percent activity or inhibition compared to the assay reference", "setting": "[36]", "result": 52, "unit": "%"}, {"measurement": "C[…]. CB1 percent activity or inhibition compared to the assay reference", "setting": "[37]", "result": 18, "unit": "%"}]}
